Assay results taken from ChEMBL document CHEMBL1201862, “PubChem BioAssay data set” (2004).
The source made the active and inactive calls.

Legend:
[1] = Shn3 3'UTR reporter inhibitors, dose response, cell-based, Clone20 osteoblasts, firefly luciferase, cherry-picked (AID 624132); type: functional;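 further: firefly luciferase luminescence from reporter carrying the Shn3 3'UTR in osteoblasts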
[2] = molecular target: Glucose-6-phosphate 1-dehydrogenase (Homo sapiens, UniProt P11413); test: human G6PD enzyme inhibitors, dose response, selectivity assay for P. falciparum G6PD inhibitor project, biochemical, fluorescence (AID 504792); type: functional
[3] = cytotoxicity toward NIH3T3 fibroblasts, dose response, counter-screen, cell-based, ATP luminescence, mouse fibroblasts (AID 2010); type: functional;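 further: cells exposed to compound for about 90 hours before reading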
CHO = test: cytotoxicity in TLR9-MyD88 CHO cells, dose response, cytotoxicity control for TLR9-MyD88 binding inhibitor project, cell-based, luminescence (AID 588339); type: functional, hamster; conditions: Cricetulus griseus;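 further: CHO cells stably coexpressing TLR9 and MyD88 fusions from primary screen; compound exposure lasted 48 hours before viability readout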
[4] = molecular target: T1, Voltage-gated N-type calcium channel alpha-1B subunit/Amyloid beta A4 precursor protein-binding family A member 1 (Homo sapiens, UniProt Q00975+Q02410); type: protein assay
[5] = nonselective inhibitors of cellular cAMP signaling, dose response, counter-screen for MC4R biased antagonist project, cell-based, TR-FRET cAMP detection (AID 602305); type: functional;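 further: U2OS cells stimulated with forskolin near its EC80 as the cAMP inducer; potency is for inhibition of forskolin-stimulated cAMP signaling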
[6] = Luminescent dose response cell-based high throughput screening assay for inhibitors of the Janus kinase 2 mutant JAK2V617F. [Related pubchem assays: 1446 (Primary screen.), 1521 (Confirmation assay.), 1486 (Counter screen.)]; type: functional
[7] = inhibitors of intracellular T. cruzi replication, confirmation, NIH3T3 host cells, beta-gal luminescence (AID 2044); type: functional, cell-based;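 further: intracellular parasites grown in NIH/3T3 mouse fibroblasts as host cells; luminescent beta-galactosidase reporter signal from transgenic T. cruzi replicating inside host cells; inhibitors lower the luminescence signal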
[8] = test system: Streptococcus sp. 'group A'; test: growth inhibition of control SK(-) GAS strain, dose response, counter-screen for streptokinase expression inhibitor project, luminescence, kanamycin, BacTiterGlo, confirmation (AID 1900); type: functional, organism-based
[9] = molecular target: T1, Voltage-gated N-type calcium channel alpha-1B subunit/Amyloid beta A4 precursor protein-binding family A member 1; type: protein assay; remark: listed apart in the source
[10] = molecular target: Heat shock protein HSP 90-alpha (Homo sapiens, UniProt P07900); type: functional, organism-based
Streptokinase A = molecular target: T2, Streptokinase A (Streptococcus pyogenes serotype M1, UniProt P10520); test: S. pyogenes streptokinase expression inhibitors, potency, dose response, plasminogen activation absorbance, OD405 (AID 1914); type: functional, Streptococcus pyogenes M1 GAS;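 further: secreted streptokinase activity via plasminogen activation per viability signal from cell pellet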
T2 sequence (P10520 whole entry): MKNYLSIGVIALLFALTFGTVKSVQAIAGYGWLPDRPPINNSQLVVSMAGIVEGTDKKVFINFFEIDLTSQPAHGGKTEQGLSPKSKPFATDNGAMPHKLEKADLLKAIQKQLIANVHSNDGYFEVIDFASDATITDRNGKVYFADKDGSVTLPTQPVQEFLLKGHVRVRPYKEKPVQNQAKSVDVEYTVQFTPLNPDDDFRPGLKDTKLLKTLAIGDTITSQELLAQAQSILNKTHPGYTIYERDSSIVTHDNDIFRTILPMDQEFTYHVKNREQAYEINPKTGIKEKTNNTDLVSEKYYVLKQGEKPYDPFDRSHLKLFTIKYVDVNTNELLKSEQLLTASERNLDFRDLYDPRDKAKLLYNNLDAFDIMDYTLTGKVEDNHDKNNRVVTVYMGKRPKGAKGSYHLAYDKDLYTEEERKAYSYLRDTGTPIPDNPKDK

Beta-galactosidase = Beta-galactosidase (Escherichia coli, UniProt Q8VNN2); test: beta-galactosidase enzyme inhibitors and activators, dose response, artefact control for CCR6 antagonist project, biochemical, E. coli enzyme, set 3 (AID 504712); type: functional
[11] = HepG2 cell cytotoxicity, dose response, cytotoxicity control for Shn3 inhibitor project, CellTiter-Glo, cherry-picked (AID 624134); type: functional, cell-based
[12] = control 3'UTR Renilla luciferase suppression, dose response, counter-screen for Shn3 inhibitor project, cell-based, Clone20-Shn3RL, cherry-picked (AID 624133); type: functional
Streptococcus = test: Group A Streptococcus viability loss, dose response, counter-screen for streptokinase expression inhibitor project, luminescence, BacTiterGlo (AID 1915); type: functional, organism-based;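 further: potency for reduction of bacterial viability or growth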
Melanocortin receptor 4 = Melanocortin receptor 4 (Homo sapiens, UniProt P32245); test: MC4R antagonist potency on cAMP, dose response, cell-based, TR-FRET, biased antagonists (AID 602298); type: functional;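 further: antagonist potency against agonist-stimulated cAMP production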
[13] = molecular target: T3, Dual specificity protein phosphatase 3 (Homo sapiens, UniProt P51452); test: SAR VHR1 Fluorescent Assay for In Vitro dose response studies. [Related pubchem assays (depositor defined):AID1654, AID1661, AID1878, AID1992, AID2004, AID2070, AID2085]; type: functional
[14] = molecular target: T4, Tyrosine-protein phosphatase non-receptor type 7 (Homo sapiens, UniProt P35236); test: redox-dependent HePTP inhibition, mechanism study, biochemical, fluorescence (AID 2068); type: functional
T4 sequence (P35236 whole entry): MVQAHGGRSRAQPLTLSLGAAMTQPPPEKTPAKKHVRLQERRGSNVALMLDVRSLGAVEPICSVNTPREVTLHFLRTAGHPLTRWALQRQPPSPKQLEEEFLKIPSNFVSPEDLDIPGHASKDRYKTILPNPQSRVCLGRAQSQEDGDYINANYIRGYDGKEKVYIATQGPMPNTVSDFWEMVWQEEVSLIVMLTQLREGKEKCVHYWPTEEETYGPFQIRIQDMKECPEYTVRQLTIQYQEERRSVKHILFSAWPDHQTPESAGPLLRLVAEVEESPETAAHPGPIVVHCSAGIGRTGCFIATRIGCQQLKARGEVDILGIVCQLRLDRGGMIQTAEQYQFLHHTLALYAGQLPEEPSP

[15] = molecular target: T3, Dual specificity protein phosphatase 3; test: SAR VHR1 absorbance Assay for In Vitro dose response studies. [Related pubchem assays (depositor defined):AID1654, AID1661, AID1878, AID1992, AID2004]
[16] = molecular target: T5, Dual specificity protein phosphatase 6 (Rattus norvegicus, UniProt Q64346); type: functional;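 further: confirmatory in vitro dose-response testing of MKP-3 inhibition; recombinant His-tagged MKP-3 made in E. coli BL21 with OMFP substrate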
T5 sequence (Q64346 whole entry): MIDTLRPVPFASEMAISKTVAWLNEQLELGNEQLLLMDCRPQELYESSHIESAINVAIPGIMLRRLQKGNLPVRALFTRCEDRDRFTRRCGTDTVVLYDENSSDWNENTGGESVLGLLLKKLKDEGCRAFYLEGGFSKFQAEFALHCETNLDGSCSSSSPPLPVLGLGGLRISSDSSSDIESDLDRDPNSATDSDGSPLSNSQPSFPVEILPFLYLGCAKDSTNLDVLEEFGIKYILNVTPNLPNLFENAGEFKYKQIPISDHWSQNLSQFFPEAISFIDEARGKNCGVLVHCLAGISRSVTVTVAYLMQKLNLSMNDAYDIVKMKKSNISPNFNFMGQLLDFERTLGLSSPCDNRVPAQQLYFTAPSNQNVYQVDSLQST

[17] = molecular target: T6, Zinc finger protein mex-5 (Caenorhabditis elegans, UniProt Q9XUB2); test: MEX-5/TCR-2 RNA interaction inhibitors, dose response, biochemical, C. elegans, fluorescence polarization (AID 1960)
T6 sequence (Q9XUB2 whole entry): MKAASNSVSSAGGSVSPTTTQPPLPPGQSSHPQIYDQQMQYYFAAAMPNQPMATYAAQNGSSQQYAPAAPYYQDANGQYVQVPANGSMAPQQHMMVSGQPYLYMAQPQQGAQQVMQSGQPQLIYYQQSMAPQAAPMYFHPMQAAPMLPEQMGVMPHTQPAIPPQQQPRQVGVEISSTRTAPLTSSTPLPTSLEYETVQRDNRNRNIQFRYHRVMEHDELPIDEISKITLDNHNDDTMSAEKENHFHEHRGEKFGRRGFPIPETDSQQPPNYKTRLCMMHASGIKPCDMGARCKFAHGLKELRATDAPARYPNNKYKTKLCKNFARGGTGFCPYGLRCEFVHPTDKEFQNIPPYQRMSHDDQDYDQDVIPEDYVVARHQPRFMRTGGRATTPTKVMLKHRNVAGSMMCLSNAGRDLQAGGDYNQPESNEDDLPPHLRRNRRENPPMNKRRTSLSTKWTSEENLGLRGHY

[18] = molecular target: Dual specificity tyrosine-phosphorylation-regulated kinase 1A (Rattus norvegicus, UniProt Q63470); type: biochemical, Homo sapiens
Fibrinogen beta chain [19] = molecular target: T7, Fibrinogen beta chain (Homo sapiens, UniProt P02675); test: Fluorescence polarization-based biochemical high throughput dose response assay to identify inhibitors that disrupt the binding of a cyclic peptide (Tn7) to the fibrin proteolytic product D-Dimer and fragment E complex [DD(E )].
[20] = molecular target: T8, Long-chain-fatty-acid--AMP ligase FadD28 (Mycobacterium tuberculosis, UniProt P9WQ59); test: Fluorescence polarization aasay to screen for inhibitors that compete for the binding of FadD28 to a bisubstrate Measured in Biochemical System Using Plate Reader - 2147-01_Inhibitor_Dose_CherryPick_Activity.; type: functional, Mycobacterium tuberculosis H37Rv
T8 sequence (P9WQ59 whole entry): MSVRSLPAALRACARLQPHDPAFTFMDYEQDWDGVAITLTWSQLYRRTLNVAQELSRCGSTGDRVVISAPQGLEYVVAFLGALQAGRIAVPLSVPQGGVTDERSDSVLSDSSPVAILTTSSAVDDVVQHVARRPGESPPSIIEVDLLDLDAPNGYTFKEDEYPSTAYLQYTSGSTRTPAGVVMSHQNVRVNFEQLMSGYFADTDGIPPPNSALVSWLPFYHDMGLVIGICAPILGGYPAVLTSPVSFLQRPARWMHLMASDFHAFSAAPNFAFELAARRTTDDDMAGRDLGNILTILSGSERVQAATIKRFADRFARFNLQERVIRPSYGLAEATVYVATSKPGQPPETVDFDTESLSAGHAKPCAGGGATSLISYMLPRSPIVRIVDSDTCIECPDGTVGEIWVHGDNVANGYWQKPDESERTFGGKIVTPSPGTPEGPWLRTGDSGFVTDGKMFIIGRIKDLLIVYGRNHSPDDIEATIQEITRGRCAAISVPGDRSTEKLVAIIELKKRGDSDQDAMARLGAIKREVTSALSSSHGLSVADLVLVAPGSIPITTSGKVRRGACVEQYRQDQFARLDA

[21] = growth suppression of PTEN-null colon cells, dose response, cell-based, HCT116 PTEN knockout (AID 1047); type: functional;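 further: HCT116 colon tumor cells with PTEN knocked out; cells exposed to compound for 60 hours before readout; potency for loss of cell viability measured by luminescence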
ORF 73 = ORF 73 (Human herpesvirus 8, UniProt O40947); test: inhibitors of C-LANA binding to LBS DNA, dose response, biochemical, fluorescence polarization, cherry-picked samples (AID 504725); set-up: species or system Human gammaherpesvirus 8;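 further: fluorescence polarization of a labeled DNA duplex reporting LANA DNA binding; potency is for inhibitors that block LANA binding to the DNA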
Keap1/Nrf2 = Keap1/Nrf2 (Homo sapiens, UniProt Q14145); test: Keap1-Nrf2 protein-protein interaction inhibitors, dose response, biochemical, fluorescence polarization, cherry-picked samples (AID 588683)
[22] = molecular target: T9, RNA-binding protein pos-1 (Caenorhabditis elegans, UniProt G5EF15); test: inhibitors of POS-1/mex-3 RNA binding, dose response, biochemical, fluorescence polarization (AID 1964);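 further: purified POS-1 fused to maltose binding protein made in E. coli; potency of compounds blocking POS-1 binding to fluorescent RNA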
T9 sequence (G5EF15 whole entry): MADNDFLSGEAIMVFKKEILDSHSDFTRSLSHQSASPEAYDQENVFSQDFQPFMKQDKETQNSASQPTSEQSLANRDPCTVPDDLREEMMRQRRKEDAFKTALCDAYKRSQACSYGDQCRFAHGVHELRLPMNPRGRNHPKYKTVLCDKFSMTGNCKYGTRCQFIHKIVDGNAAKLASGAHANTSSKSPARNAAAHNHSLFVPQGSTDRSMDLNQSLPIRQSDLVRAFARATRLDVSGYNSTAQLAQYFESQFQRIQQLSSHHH

Troponin, cardiac muscle = Troponin, cardiac muscle (Homo sapiens, UniProt P19429+P45379+P63316); test: Fluorescence-based biochemical high throughput dose response assay for activators of the calcium sensitivity of cardiac Regulated Thin Filaments (RTF). [Related pubchem assays (depositor defined):AID493008, AID493018, AID504382, AID504383]; type: protein-complex assay
Fibrinogen beta chain [23] = molecular target: T7, Fibrinogen beta chain; test: Fluorescence polarization-based biochemical high throughput dose response assay to identify inhibitors that disrupt the binding of a cyclic peptide (Tn6) to the fibrin proteolytic product D-Dimer and fragment E complex [DD(E )].
[24] = growth suppression of beta-catenin-knockout colon cells, dose response, cell-based, HCT116, human colon tumor (AID 1045); type: functional;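 further: HCT116 colon tumor cells with beta catenin knocked out; cells exposed to compound for 60 hours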
[25] = molecular target: Eukaryotic translation initiation factor 4H (Homo sapiens, UniProt Q15056); test: eIF4H inhibition in translation initiation, SAR follow-up (AID 435011); type: functional
[26] = molecular target: Polyadenylate-binding protein 1 (Homo sapiens, UniProt P11940); test: PABP inhibition in translation initiation, SAR follow-up (AID 435018); type: functional

T7 sequence (P02675 whole entry, the tested form may be a part): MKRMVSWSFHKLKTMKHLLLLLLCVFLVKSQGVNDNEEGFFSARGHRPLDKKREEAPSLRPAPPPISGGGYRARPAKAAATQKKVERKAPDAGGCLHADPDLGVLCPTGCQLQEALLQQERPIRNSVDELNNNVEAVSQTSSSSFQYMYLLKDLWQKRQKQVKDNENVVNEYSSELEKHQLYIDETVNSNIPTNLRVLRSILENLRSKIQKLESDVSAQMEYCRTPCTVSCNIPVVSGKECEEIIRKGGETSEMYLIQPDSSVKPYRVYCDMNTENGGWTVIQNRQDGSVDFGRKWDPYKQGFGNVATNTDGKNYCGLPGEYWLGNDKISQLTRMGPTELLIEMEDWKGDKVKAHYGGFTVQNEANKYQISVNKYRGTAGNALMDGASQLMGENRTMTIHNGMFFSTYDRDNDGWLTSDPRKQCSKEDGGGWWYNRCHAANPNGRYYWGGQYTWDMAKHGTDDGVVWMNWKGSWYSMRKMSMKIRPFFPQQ
T3 sequence (P51452 whole entry): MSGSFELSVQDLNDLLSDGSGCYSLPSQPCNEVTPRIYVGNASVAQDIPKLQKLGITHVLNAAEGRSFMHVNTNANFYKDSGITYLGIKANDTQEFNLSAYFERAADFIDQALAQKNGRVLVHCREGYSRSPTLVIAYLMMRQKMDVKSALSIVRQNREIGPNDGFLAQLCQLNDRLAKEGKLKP
T1 sequence (Q00975 whole entry): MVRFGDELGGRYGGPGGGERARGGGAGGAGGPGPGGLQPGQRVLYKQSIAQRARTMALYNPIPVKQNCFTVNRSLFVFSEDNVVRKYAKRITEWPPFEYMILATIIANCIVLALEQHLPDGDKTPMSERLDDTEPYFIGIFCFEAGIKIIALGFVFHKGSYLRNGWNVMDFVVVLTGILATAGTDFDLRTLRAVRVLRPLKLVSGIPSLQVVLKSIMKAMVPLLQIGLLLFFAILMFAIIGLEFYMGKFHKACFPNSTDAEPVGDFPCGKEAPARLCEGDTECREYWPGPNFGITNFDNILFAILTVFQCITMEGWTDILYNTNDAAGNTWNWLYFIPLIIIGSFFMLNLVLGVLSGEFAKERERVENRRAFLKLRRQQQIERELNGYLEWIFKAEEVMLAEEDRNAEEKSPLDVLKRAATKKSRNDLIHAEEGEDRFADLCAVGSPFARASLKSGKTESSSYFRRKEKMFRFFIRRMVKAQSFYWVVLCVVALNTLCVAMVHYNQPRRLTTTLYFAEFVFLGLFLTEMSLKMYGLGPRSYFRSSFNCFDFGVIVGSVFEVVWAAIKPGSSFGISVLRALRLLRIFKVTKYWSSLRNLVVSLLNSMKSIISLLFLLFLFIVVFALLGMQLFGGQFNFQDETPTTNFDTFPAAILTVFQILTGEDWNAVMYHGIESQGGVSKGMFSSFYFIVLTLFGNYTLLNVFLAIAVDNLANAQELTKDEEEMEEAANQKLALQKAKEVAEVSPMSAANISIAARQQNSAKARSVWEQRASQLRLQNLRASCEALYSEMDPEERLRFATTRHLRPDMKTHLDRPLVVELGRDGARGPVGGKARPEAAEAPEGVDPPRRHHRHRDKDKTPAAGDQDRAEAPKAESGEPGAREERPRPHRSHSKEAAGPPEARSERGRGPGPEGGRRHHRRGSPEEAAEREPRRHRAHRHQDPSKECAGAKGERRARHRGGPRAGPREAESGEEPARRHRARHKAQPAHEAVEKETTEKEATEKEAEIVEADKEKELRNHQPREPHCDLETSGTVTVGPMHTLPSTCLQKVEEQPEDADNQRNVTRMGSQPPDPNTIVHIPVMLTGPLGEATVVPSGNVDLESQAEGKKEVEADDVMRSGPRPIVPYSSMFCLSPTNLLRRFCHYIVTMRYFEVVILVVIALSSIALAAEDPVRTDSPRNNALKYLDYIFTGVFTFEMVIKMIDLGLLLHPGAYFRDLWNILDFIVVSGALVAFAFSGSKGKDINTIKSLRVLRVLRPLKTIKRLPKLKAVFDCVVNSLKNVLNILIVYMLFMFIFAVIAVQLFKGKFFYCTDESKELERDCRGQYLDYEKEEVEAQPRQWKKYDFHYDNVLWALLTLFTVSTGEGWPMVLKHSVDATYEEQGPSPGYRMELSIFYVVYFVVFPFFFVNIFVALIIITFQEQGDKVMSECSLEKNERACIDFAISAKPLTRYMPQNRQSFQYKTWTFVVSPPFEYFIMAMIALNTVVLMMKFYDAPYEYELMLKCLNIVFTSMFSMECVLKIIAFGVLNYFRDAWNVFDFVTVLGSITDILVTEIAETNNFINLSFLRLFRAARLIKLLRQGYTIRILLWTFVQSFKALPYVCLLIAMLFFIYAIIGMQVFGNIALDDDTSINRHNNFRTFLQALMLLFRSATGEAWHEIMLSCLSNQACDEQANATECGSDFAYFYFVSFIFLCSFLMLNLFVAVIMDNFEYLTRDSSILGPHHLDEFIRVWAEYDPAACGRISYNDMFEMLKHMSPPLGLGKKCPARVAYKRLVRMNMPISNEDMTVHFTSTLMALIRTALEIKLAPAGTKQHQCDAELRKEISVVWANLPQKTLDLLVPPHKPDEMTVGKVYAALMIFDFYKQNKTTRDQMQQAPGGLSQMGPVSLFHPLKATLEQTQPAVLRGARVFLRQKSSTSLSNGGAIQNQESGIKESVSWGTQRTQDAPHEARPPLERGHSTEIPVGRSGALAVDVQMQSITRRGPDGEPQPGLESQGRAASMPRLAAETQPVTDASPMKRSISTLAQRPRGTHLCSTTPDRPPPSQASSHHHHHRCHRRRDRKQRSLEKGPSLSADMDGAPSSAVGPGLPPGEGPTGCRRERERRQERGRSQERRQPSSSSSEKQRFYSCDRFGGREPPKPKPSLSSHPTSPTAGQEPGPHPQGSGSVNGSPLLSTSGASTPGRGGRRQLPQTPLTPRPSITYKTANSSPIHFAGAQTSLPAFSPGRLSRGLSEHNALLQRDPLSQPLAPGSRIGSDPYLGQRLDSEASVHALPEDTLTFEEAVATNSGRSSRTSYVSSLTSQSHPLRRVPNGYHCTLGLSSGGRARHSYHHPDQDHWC
T1 sequence (Q02410 whole entry): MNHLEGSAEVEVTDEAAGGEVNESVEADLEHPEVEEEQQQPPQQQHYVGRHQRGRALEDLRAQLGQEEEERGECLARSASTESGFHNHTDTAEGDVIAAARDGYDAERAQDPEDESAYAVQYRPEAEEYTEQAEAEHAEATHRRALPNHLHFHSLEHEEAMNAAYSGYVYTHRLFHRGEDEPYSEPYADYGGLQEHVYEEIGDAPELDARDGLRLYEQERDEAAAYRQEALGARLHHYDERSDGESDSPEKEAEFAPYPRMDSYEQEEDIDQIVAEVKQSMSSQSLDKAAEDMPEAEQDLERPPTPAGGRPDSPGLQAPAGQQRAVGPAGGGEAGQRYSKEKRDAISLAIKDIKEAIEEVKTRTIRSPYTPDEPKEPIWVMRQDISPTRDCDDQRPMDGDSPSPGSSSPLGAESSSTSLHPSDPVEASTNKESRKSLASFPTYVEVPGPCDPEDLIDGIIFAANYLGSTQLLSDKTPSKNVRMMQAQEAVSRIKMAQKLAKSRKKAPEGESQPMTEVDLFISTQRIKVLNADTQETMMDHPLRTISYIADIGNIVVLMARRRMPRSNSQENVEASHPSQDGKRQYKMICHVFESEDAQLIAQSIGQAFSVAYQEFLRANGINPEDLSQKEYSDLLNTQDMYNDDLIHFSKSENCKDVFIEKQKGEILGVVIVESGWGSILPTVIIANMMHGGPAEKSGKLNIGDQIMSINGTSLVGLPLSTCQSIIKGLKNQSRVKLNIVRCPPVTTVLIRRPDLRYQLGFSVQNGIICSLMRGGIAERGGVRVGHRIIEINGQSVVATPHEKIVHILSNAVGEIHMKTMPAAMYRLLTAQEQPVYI
Glucose-6-phosphate 1-dehydrogenase, sequence (P11413 whole entry): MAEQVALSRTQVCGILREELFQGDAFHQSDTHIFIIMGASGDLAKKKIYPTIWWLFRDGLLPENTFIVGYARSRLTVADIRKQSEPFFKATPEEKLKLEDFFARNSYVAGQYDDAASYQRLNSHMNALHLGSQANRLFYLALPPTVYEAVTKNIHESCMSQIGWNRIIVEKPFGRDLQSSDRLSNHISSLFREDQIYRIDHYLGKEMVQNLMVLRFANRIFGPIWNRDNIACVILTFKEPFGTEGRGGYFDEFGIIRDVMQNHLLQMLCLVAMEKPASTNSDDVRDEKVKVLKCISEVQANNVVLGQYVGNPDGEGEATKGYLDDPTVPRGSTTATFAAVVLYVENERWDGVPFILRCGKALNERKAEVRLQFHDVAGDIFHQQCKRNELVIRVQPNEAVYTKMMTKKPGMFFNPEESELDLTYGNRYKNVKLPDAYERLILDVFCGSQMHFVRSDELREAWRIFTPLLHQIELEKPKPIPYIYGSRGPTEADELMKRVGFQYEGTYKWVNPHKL
Melanocortin receptor 4, sequence (P32245 whole entry): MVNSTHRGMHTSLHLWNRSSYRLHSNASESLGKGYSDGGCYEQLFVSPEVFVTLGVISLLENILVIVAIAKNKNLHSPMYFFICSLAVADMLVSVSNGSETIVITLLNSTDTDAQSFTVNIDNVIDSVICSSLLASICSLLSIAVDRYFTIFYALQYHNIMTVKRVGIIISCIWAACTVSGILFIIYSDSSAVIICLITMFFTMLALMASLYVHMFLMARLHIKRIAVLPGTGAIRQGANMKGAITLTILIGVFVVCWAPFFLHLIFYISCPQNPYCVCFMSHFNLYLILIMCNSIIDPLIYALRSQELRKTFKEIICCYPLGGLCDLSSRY

With `O=C1C=CC(=O)N1CCNc1ncc(C(F)(F)F)cc1Cl` the AC50 [1] was 0.947 µM (active), the IC50 [2] was > 80 µM (inactive) and the EC50 [3] was 3.98 µM (active). For the same compound, the IC50 (CHO) was 1.62 µM (active), the IC50 [4] was 12 µM (active) and the IC50 [5] was 15.1 µM (inactive). For the same compound, the IC50 [6] was 0.383 µM (active), the EC50 [7] was 2.78 µM (active) and the EC50 [8] was 10.4 µM (active). For the same compound, the IC50 [9] was 1.53 µM (active), the AC50 [10] was 0.482 µM (active) and the EC50 (Streptokinase A) was > 150 µM (not active). For the same compound, the IC50 (Beta-galactosidase) was > 66.6 µM (inactive), the AC50 [11] was 16 µM (active) and the AC50 [12] was 11.9 µM (active). For the same compound, the EC50 (Streptococcus) was > 150 µM (not active) and the IC50 (Melanocortin receptor 4) was 12.3 µM (inactive).
With `CNC(=O)c1cn(CCOc2ccccc2)c2ccccc12` the IC50 [13] was > 100 µM (inactive), the IC50 [14] was 86.8 µM (active) and the IC50 [15] was > 100 µM (inactive). The IC50 [16] was > 100 µM (inactive).
In the case of `N#CC1=C(N)Oc2ccc3ccc(O)cc3c2C1c1ccsc1` (centres undefined), the EC50 [17] is reported as 11 µM (inconclusive), the AC50 [18] is reported as 8.56 µM (active) and the IC50 (Fibrinogen beta chain [19]) is reported as > 83.3 µM (inactive). For the same compound, the AC50 [20] was 52.3 µM (active), the EC50 [21] was 10.4 µM (active) and the AC50 (ORF 73) was 51.6 µM (active). For the same compound, the AC50 (Keap1/Nrf2) was > 52 µM (inactive), the EC50 [22] was 76.1 µM (inconclusive) and the EC50 (Troponin, cardiac muscle) was 18.8 µM (inactive). For the same compound, the IC50 (Fibrinogen beta chain [23]) was 8.51 µM (active) and the EC50 [24] was 15.4 µM (active).
With `COc1ccc(NC(=O)C2CC(=O)N(C)/C(=N\c3ccccc3OC)S2)cc1` (centres undefined) the IC50 [25] was > 100 µM (inactive) and the IC50 [26] was > 100 µM (inactive).
